From PubChem BioAssay (NCI)
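Growth conditions: 96-well plates. Treatment: test compound, 48 hours, 5 concentrations. Analysis: linear interpolation between bracketing concentrations; unreached endpoints set to highest concentration. GI50 = concentration required for 50% inhibition of growth. TGI is the concentration that stops growth completely.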

Legend:
Assay in all cases: NCI-60 cell line screen, 48 h
DMS 273 small cell lung = test system: DMS 273 small cell lung
KM12 colon = test system: KM12 colon
KM20L2 colon = test system: KM20L2 colon
LXFL 529 NSCLC = test system: LXFL 529 NSCLC
MALME-3M melanoma = test system: MALME-3M melanoma
NCI-H23 lung = test system: NCI-H23 lung
SK-MEL-2 melanoma = test system: SK-MEL-2 melanoma
SNB-78 CNS = test system: SNB-78 CNS
CCRF-CEM leukemia = test system: CCRF-CEM leukemia
HT29 colon = test system: HT29 colon
T-47D breast = test system: T-47D breast

SMILES	TGI (DMS 273 small cell lung) [µM]	TGI (KM12 colon) [µM]	TGI (KM20L2 colon) [µM]	TGI (LXFL 529 NSCLC) [µM]	TGI (MALME-3M melanoma) [µM]	TGI (NCI-H23 lung) [µM]	TGI (SK-MEL-2 melanoma) [µM]	TGI (SNB-78 CNS) [µM]	TGI (CCRF-CEM leukemia) [µM]	TGI (HT29 colon) [µM]	GI50 (CCRF-CEM leukemia) [µM]	GI50 (HT29 colon) [µM]	GI50 (KM12 colon) [µM]	GI50 (MALME-3M melanoma) [µM]	GI50 (NCI-H23 lung) [µM]	GI50 (SK-MEL-2 melanoma) [µM]	GI50 (T-47D breast) [µM]	TGI (T-47D breast) [µM]
Cc1cccc(N2C(=O)C(=O)C(c3nc4ccccc4s3)/C(=N/NC(=S)NN)C2=O)c1C (configuration not stated)	> 100	> 100	> 100	> 100	> 100	> 100	> 100	> 100	–	–	–	–	–	–	–	–	–	–
CC1=C(Cl)C=CP(=O)(OC(C)C)C1 (configuration not stated)	–	> 100	> 100	> 100	> 100	> 100	> 100	> 100	> 100	> 100	–	–	–	–	–	–	–	–
CN1CCN(Cc2ccc(NC(=O)c3cncc(C#Cc4cncc5nccnc45)c3)cc2C(F)(F)F)CC1	–	6.88	–	–	1.3	11	2.7	–	35	7.87	3.98	0.914	0.136	0.231	2.16	0.915	5.61	14.9
CCOC(=O)[C@H]1Nc2ccc([N+](=O)[O-])cc2C2c3ccccc3CC21 (some centres not stated)	34.9	> 100	54	49.3	68	73.6	72.3	> 100	43.8	35.4	–	–	–	–	–	–	–	–
CCCCNC(=O)Oc1ccc(/C(=C(/C)Cc2ccc(OC)cc2)c2ccc(OCCN3CCCC3)cc2)cc1	–	4.49	–	–	3.28	5.67	4.23	–	7.41	3.85	2.57	1.89	2.03	1.7	2.26	2.13	1.39	4.37
COc1cc2ncnc(Nc3ccc4c(cnn4Cc4ccccc4)c3)c2cc1OC	–	> 25	–	–	> 25	> 25	> 25	–	> 25	> 25	> 18.1	8.77	18.7	> 25	> 25	> 25	2.16	> 25
NCCOc1ccccc1/C=C1\c2ccccc2-c2ccc([N+](=O)[O-])cc21	–	2.94	–	–	2.91	3.23	3.34	–	2.54	2.84	1.08	1.42	1.55	1.5	1.7	1.8	1.66	3.44
Clc1ccc2nc(-c3ccccc3)nc(Cl)c2c1	> 100	> 100	> 100	> 100	95.1	> 100	> 100	> 100	> 100	> 100	–	–	–	–	–	–	–	–
CCCCN[C@H]1C2C3CC4C5CC(C42)C1(C)C53 (some centres not stated)	> 100	> 100	> 100	> 100	> 100	–	> 100	> 100	> 100	> 100	–	–	–	–	–	–	–	–
